Measurements taken from PMC8071358, “Targeting of the Essential acpP, ftsZ, and rne Genes in Carbapenem-Resistant Acinetobacter baumannii by Antisense PNA Precision Antibacterials” (Biomedicines, 2021).
Values after ≈ are worked out from the molar mass of the structure shown. Like-named read-outs stand apart in the source and are kept apart here. {(KFF)3K-eg1} = H-(KFF)3K peptide (K lysine, F phenylalanine) with eg1 linker (8-amino-3,6-dioxaoctanoyl), on the PNA N terminus (5' end); {(kff)3k-eg1} = D-form (kff)3k peptide with eg1 linker (8-amino-3,6-dioxaoctanoyl), on the PNA N terminus; {NH2} = C-terminal amide

Columns and labels:
Assay type in all cases: cell-based, Acinetobacter baumannii
A. baumannii ATCC 19606 = test: BPP-PNA MIC, broth microdilution; conditions: 37 °C, 18 h
Procedure: (§1) MIC values were determined by broth microdilution according to standard protocols with a few modifications. An overnight bacterial cell culture was diluted to approximately 5 × 10^5 CFU/mL in non-cation-adjusted Muller Hinton Broth (MHB). Then, 180 µL bacterial solutions were dispensed into a low-bind 96-well plate (Thermo-Scientific, Roskilde, Denmark) along with 20 µL of BPP-PNA compound (BPP-PNA was serially diluted 2-fold from 16 to 0.5 µM in a 96-well plate). The plate was incubated in a Tecan Genios plate reader (GMI, Minnesota, Ramsey, USA) at 37 °C for 18 h with linear shaking, OD was measured every 20 min at 595 nm. […] The minimum bactericidal concentration (MBC) values were determined by plating 10 µL samples from the wells with no visible turbidity onto Mueller–Hinton agar plates. The MBC is determined the lowest concentration of BPP-PNA that reduces the viability of the initial bacterial inoculum by ≥99.9% (3-log reduction in CFU/mL). A minimum of two independent experiments (biological replicates) of the assay were conducted, and two technical replicates were used in each experiment for each bacterium, compound, and concentration.

CRAB strain AC2 [1] = test: BPP-PNA MIC, broth microdilution
Procedure: as §1

CRAB strain AC44 [2] = test: BPP-PNA MIC, broth microdilution
Procedure: as §1

A. baumannii SSI1104 = test: BPP-PNA MIC, broth microdilution
Procedure: as §1, with “An overnight bacterial cell culture was diluted to approximately 5 × 10^5 CFU/mL in non-cation-adjusted Muller Hinton Broth (MHB).” left out

CRAB strain AC46 [3] = test: BPP-PNA MIC, broth microdilution
Procedure: as §1, with “An overnight bacterial cell culture was diluted to approximately 5 × 10^5 CFU/mL in non-cation-adjusted Muller Hinton Broth (MHB).” left out

[4] = tested on: A. baumannii ATCC 19606 type strain; test: Antibiotic MIC (CLSI microdilution or gradient strips); conditions: Acinetobacter baumannii, ATCC19606
Procedure: (§2) All minimum inhibitory concentration (MIC) determinations for antibiotics were performed by the standard microdilution method in 96-well microplate (Thermo-Scientific, Roskilde, Denmark) or by gradient test strips (Liofilchem, Italy) according to the Clinical and Laboratory Standards Institute guidelines. Escherichia coli ATCC 25922 was used as control.

CRAB strain AC44 [5] = test: as above; conditions: Acinetobacter baumannii, AC44, urine isolate
Procedure: as §2

CRAB strain AC46 [6] = test: as above; conditions: Acinetobacter baumannii
Procedure: as §2

CRAB strain AC8 = test: as above; conditions: Acinetobacter baumannii
Procedure: as §2

CRAB strain AC9 = test: as above; conditions: Acinetobacter baumannii
Procedure: as §2

CRAB strain AC1 = test: as above; conditions: Acinetobacter baumannii, AC1, wound isolate
Procedure: as §2

CRAB strain AC2 [7] = test: as above; conditions: Acinetobacter baumannii
Procedure: as §2

CRAB strain AC3 = test: as above; conditions: Acinetobacter baumannii, AC3, sputum isolate
Procedure: as §2

CRAB strain AC4 = test: as above; conditions: Acinetobacter baumannii
Procedure: as §2

CRAB strain SSI1104 = test: as above; conditions: Acinetobacter baumannii, SSI1104
Procedure: as §2

CRAB strain AC6 = test: as above; conditions: Acinetobacter baumannii
Procedure: as §2, with “guidelines.” for “guidelines. Escherichia coli ATCC 25922 was used as control.”

CRAB strain AC7 = test: as above; conditions: Acinetobacter baumannii
Procedure: as §2, with “guidelines.” for “guidelines. Escherichia coli ATCC 25922 was used as control.”

CRAB strain AC5 = test: as above; conditions: Acinetobacter baumannii, AC5, urine isolate
Procedure: as §2

[8] = Sigma MHB medium without cation, 37 °C, 18 h
[9] = Table 4 (anti-rne), brand of medium not given, non-cation-adjusted MHB by method
[10] = MHB without cation (Oxoid), 37 °C, 18 h
[11] = AC46, sputum isolate, CLSI, read-out: MIC, AC46
[12] = AC8, sputum isolate, CLSI, read-out: MIC, AC8
[13] = AC9, CSF isolate, CLSI, read-out: MIC, AC9

“H-(kff)3k -eg1-TGACTTGTCAC-NH2 (all peptide nucleic acid (PNA), 5' {(kff)3k-eg1}, 3' {NH2}) [PNA 5824, anti-acpP PNA with D-form peptide, mismatch]” was tested, and the “MIC, ATCC 19606” value (A. baumannii ATCC 19606; Sigma MHB medium without cation, ~5 × 10^5 CFU/mL, OD595 < 0.1) was 8 µM, the “MIC, AC2” value (CRAB strain AC2 [1]; [8]) was 8 µM and the “MIC, AC44” value (CRAB strain AC44 [2]; [8]) was 4 µM. For the same molecule, the “MIC, SSI 1104” value (A. baumannii SSI1104; [8]) was 8 µM and the “MIC, AC46” value (CRAB strain AC46 [3]; [8]) was 4 µM.

“H-(KFF)3K-eg1-ACGATTCTTGG-NH2 (all peptide nucleic acid (PNA), 5' {(KFF)3K-eg1}, 3' {NH2}) [PNA 5638, anti-rne mismatch control of 5637]” was tested, and the “MIC, ATCC 19606” value (A. baumannii ATCC 19606; [9]) was 2 µM, the “MIC, AC44” value (CRAB strain AC44 [2]; [9]) was 2 µM and the “MIC, AC46” value (CRAB strain AC46 [3]; [9]) was 1 µM.

In the case of “H-(KFF)3K-eg1-GGCCATGACCT-NH2 (N-terminal (KFF)3K-eg1 peptide, C-terminal amide, backbone not given here, further chemistry not given here) [PNA 5658, anti-ftsZ peptide-PNA conjugate, match, −5 to +6]”, the “MIC, ATCC 19606” value (A. baumannii ATCC 19606; MHB without cation (Oxoid)) is reported as 4 µM, the “MIC, AC44” value (CRAB strain AC44 [2]; [10]) is reported as 8 µM and the “MIC, SSI 1104” value (A. baumannii SSI1104; [10]) is reported as 8 µM.

“H-(KFF)3K-eg1- TTTGATGTGTG -NH2 (all peptide nucleic acid (PNA), 5' {(KFF)3K-eg1}, 3' {NH2}) [PNA 5822, anti-rne mismatch control of 5656]” was tested, and the “MIC, ATCC 19606” value (A. baumannii ATCC 19606; [9]) was 8 µM, the “MIC, AC2” value (CRAB strain AC2 [1]; [9]) was 8 µM and the “MIC, AC44” value (CRAB strain AC44 [2]; [9]) was 8 µM. The “MIC, SSI 1104” value (A. baumannii SSI1104; [9]) was 8 µM and the “MIC, AC46” value (CRAB strain AC46 [3]; [9]) was 8 µM.

With `CN(C)[C@@H]1C(O)=C(C(N)=O)C(=O)[C@@]2(O)C(O)=C3C(=O)c4c(O)cccc4[C@@](C)(O)[C@H]3C[C@@H]12` [Tetracycline] the MIC [4] was 1 µg/mL (≈ 2.25 µM), the MIC (CRAB strain AC44 [5]) was 256 µg/mL (≈ 576 µM) and the MIC (CRAB strain AC46 [6]; [11]) was 128 µg/mL (≈ 288 µM). For the same molecule, the MIC (CRAB strain AC8; [12]) was 32 µg/mL (≈ 72 µM) and the MIC (CRAB strain AC9; [13]) was 32 µg/mL (≈ 72 µM).

For `CNC(C)C1CCC(N)C(OC2C(N)CC(N)C(OC3OCC(C)(O)C(NC)C3O)C2O)O1` (centres unmarked) [Gentamicin], the MIC [4] was 4 µg/mL (≈ 8.38 µM), the MIC (CRAB strain AC1) was 8 µg/mL (≈ 16.8 µM) and the MIC (CRAB strain AC2 [7]; AC2, read-out: MIC, AC2) was 16 µg/mL (≈ 33.5 µM). The MIC (CRAB strain AC3) was 8 µg/mL (≈ 16.8 µM), the MIC (CRAB strain AC46 [6]; AC46, read-out: MIC, AC46) was 16 µg/mL (≈ 33.5 µM) and the MIC (CRAB strain AC4; AC4, read-out: MIC, AC4) was 16 µg/mL (≈ 33.5 µM). The MIC (CRAB strain AC8; AC8, read-out: MIC, AC8) was 16 µg/mL (≈ 33.5 µM), the MIC (CRAB strain AC9; AC9, read-out: MIC, AC9) was 16 µg/mL (≈ 33.5 µM) and the MIC (CRAB strain SSI1104) was 32 µg/mL (≈ 67 µM). It also gave an MIC (CRAB strain AC6; AC6, read-out: MIC, AC6) of 16 µg/mL (≈ 33.5 µM) and an MIC (CRAB strain AC7; AC7, read-out: MIC, AC7) of 16 µg/mL (≈ 33.5 µM).

In the case of `CC(C)(O/N=C(\C(=O)N[C@@H]1C(=O)N2C(C(=O)[O-])=C(C[n+]3ccccc3)CS[C@H]12)c1csc(N)n1)C(=O)O` [Ceftazidime], the MIC [4] is reported as 8 µg/mL (≈ 14.6 µM), the MIC (CRAB strain AC1) is reported as 64 µg/mL (≈ 117 µM) and the MIC (CRAB strain AC2 [7]; AC2, wound isolate, CLSI, read-out: MIC, AC2) is reported as 64 µg/mL (≈ 117 µM). For the same molecule, the MIC (CRAB strain AC3) was 64 µg/mL (≈ 117 µM), the MIC (CRAB strain AC44 [5]) was 256 µg/mL (≈ 468 µM) and the MIC (CRAB strain AC46 [6]; [11]) was 128 µg/mL (≈ 234 µM). The MIC (CRAB strain AC4; AC4, trachea isolate, CLSI, read-out: MIC, AC4) was 64 µg/mL (≈ 117 µM), the MIC (CRAB strain AC5) was 32 µg/mL (≈ 58.5 µM) and the MIC (CRAB strain AC8; [12]) was 64 µg/mL (≈ 117 µM). The MIC (CRAB strain AC9; [13]) was 32 µg/mL (≈ 58.5 µM), the MIC (CRAB strain SSI1104) was greater than 8 µg/mL and the MIC (CRAB strain AC6; AC6, blood isolate, CLSI, read-out: MIC, AC6) was 32 µg/mL (≈ 58.5 µM). For the same molecule, the MIC (CRAB strain AC7; AC7, blood isolate, CLSI, read-out: MIC, AC7) was 64 µg/mL (≈ 117 µM).

In the case of “H-(KFF)3K-eg1-ATCCGTTTAAT-NH2 (all peptide nucleic acid (PNA), 5' {(KFF)3K-eg1}, 3' {NH2}) [PNA 5821, anti-rne mismatch control of 5654]”, the “MIC, ATCC 19606” value (A. baumannii ATCC 19606; [9]) is reported as 4 µM, the “MIC, AC2” value (CRAB strain AC2 [1]; [9]) is reported as 2 µM and the “MIC, AC44” value (CRAB strain AC44 [2]; [9]) is reported as 1 µM. For the same molecule, the “MIC, SSI 1104” value (A. baumannii SSI1104; [9]) was 2 µM and the “MIC, AC46” value (CRAB strain AC46 [3]; [9]) was 2 µM.
